In patent publication EP1028948B1, “PHENYL-ALKYL-IMIDAZOLES AS H3 RECEPTOR ANTAGONISTS” (SCHERING CORPORATION, priority 1997, dated 1999):

Biological target: T1, H3 receptors (Cavia porcellus, UniProt Q9JI35)
T1 construct: The brain tissue was homogenized using a Polytron in a solution of 50 mM Tris, pH 7.5; from tissue; host or cells: guinea pig brain membranes
Assay: H3 Receptor Binding Assay
Details: guinea pig brain membranes; 3 nM [3H]R-α-methylhistamine or 3 nM [3H]Nα-methylhistamine; 30°C for 30 min
Experimental: The source of the H3 receptors in this experiment was guinea pig brain. The animals weighed 400-600 g. […] The final concentration of tissue in the homogenization buffer was 10% w/v. […] The membranes were frozen and stored at -70°C until needed.
Membranes were then added (400 µg of protein) to the reaction tubes. […] Bound ligand was separated from unbound ligand by filtration, and the amount of radioactive ligand bound to the membranes was quantitated by liquid scintillation spectrometry.

T1 sequence (Q9JI35 whole entry): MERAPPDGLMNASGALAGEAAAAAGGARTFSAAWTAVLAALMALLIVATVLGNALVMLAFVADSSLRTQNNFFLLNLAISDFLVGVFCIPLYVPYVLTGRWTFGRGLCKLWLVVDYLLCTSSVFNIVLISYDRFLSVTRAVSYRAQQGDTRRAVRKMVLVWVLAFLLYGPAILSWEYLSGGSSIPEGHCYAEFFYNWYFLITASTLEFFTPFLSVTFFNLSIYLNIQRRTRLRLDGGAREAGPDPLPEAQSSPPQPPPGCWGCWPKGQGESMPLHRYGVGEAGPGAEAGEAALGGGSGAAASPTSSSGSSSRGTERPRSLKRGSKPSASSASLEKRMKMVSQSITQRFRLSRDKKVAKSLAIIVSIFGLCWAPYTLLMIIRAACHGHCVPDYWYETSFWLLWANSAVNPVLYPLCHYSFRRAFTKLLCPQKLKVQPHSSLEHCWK

## O=C(/C=C/c1ccc(Cc2c[nH]cn2)cc1)NCCc1ccc(Cl)cc1 [Compound 3]
  Ki: 1 to 19 nM
